Source: patent US20100204112A1, “USE OF TYR-W-MIF-1 AND UROCORTIN 2 AS THERAPEUTIC AGENTS” (priority 2007, published 2010)
Where no end group is shown, it is not given here.

What was measured:
[1] = tested on: HIV-1IIIB; experiment: HIV-1 antiviral assay in CEM-SS cells (MTS readout)
[2] = tested on: hepatitis B virus (HBV) ayw strain; experiment: HBV experimental assay system (HepG2-2.2.15, TaqMan PCR of secreted HBV DNA); assay type: cell-based; settings: 10 micrograms per ml; HepG2-2.2.15 cells; six days; HBV DNA by TaqMan PCR
Excerpt: HepG2-2.2.15 is a stable cell line containing the hepatitis B virus (HBV) ayw strain genome (ATCC Cat. No. CRL-11997). Antiviral compounds blocking any late step of viral replication such as transcription, translation, pregenome encapsidation, reverse transcription, particle assembly and release can be identified and characterized using this cell line. In this assay, an active compound will reduce the production of secreted HBV from cells, measured by utilizing real time quantitative PCR (TaqMan) assay to directly and accurately measure HBV DNA copies.
HepG2-2.2.15 cells were plated in 96-well microtiter plates. After 16-24 hours the confluent monolayer of HepG2-2.2.15 cells was washed and the medium was replaced with complete medium containing test peptides—10 micrograms per ml—in duplicate. […] Six days following the initial administration of the peptides, the cell culture supernatants was collected, treated with pronase and DNAse and then used in a real-time quantitative TaqMan PCR assay. The PCR-amplified HBV DNA was detected in real-time by monitoring increases in fluorescence signals that result from the exonucleolytic degradation of a quenched fluorescence probe molecule that hybridizes to the amplified HBV DNA. […] Antiviral activity was calculated from the reduction in HBV DNA levels (% virus control). […]

[3] = tested on: Primary Human endothelial cells (HUVEC); experiment: Endothelial cell migration assay; settings: 10 micrograms per ml, 22 hours, combination peptide 1:peptide 2 0.95 mole:1.05 mole
Method: Primary Human endothelial cells (HUVEC) were seeded in insert chambers with 3 micrometer pore size of multi-transwell plate for 6 hours at 37° C. in Endothelial Cell Basal Medium (EBM) supplemented with 0.1% bovine serum albumin. Thereafter, designated concentration of testing peptides -10 micrograms per ml—was added in duplicate wells. The endothelia were allowed to migrate for 22 hours at 37° C., then, migrated cells were fixed and stained with Hoechst 33342 dye. Images of 3 fields per insert were taken and the number of migrated cells per field were quantified using the ImageProPlus software. Data were analyzed for the average number of the migrated cells and standard deviation of six data points for each treatment condition. […] Statistic p values were computed using the Student's t-test.

[4] = tested on: RAW 264.7 cells; experiment: Phagocytosis assay (Fluorescein-labeled Escherichia coli, flow cytometry); settings: 10 micrograms per ml, combination peptide 1:peptide 2 1.10 mole:0.90 mole
Method: RAW 264.7 (Mouse leukaemic monocyte macrophage cell line) cells were obtained from ATCC and grown in RPMI 1640 medium containing 10% FBS. Cells were incubated in 12×75 mm tubes at 37° C. with test peptides—10 micrograms per ml—for 30 min prior to adding Fluorescein-labeled Escherichia coli bacteria as the agent to be ingested. After the cells were incubated for additional 60 min at 37° C. and allowed to ingest the Fluorescein-labeled Escherichia coli bacteria, cells were fixed with 1% paraformaldehyde. The samples were then analyzed by flow cytometry to determine the amount of phagocytosis as a function of brightness (the greater the phagocytic activity, the more fluorescence in the macrophage population). Data are reported as % positive and the mean fluorescence intensity (MFI) of positively stained cells.

[5] = tested on: HUVEC; experiment: Endothelial tube formation assay; settings: 10 micrograms per ml, 20 hours, combination peptide 1:peptide 2 0.95 mole:1.05 mole
Method: The endothelial tube formation assay is based on the ability of endothelial cells to form three-dimensional capillary-like tubular structures when cultured on a gel of basement membrane extract. […] Pre-labeled HUVEC with Calcein AM were seeded in a 96-well culture plate coated with extracellular metrix (Chemicon international Cat. ECM625) and treated with test peptides—10 micrograms per ml—in full growth medium. Positive control was vehicle only. The endothelial cells were allowed to form tubes foe 20 hours and were then examined under an inverted fluorescent microscope. Duplicate wells for each treatment were photographed and quantitatevily analyzed for an average tubule length using image analysis software ImageProPlus. Raw data were expressed as average tubule lengths in pixels ±standard deviation. Statistic p values were computed using the Student's t-test.

[6] = tested on: spleen cells; experiment: Th1/Th2 cytokine profiling assay (Ovalbumin-restimulated spleen cells, CBA Kit); assay type: cell-based, Balb/c mice; settings: 10 micrograms per ml; Ovalbumin restimulation; 72 hours
Excerpt: The Balb/c mice (originated in 1923, it is a popular strain and is used in many different research disciplines. Also classified as an inbred from the production of 20 or more successive brother-sister matings, the Balb/c mouse is albino and small in size) were immunized on Days 1, 15, and 29 with Ovalbumin (Ovalbumin is the main protein found in egg white, commonly used to stimulate an immunological reaction in test animals) in PBS (5 micrograms/injection). On day 50, spleens of the mice were harvested (3 weeks after last boost with Ovalbumin). […] Thereafter, additional Ovalbumin was added to the cells at 10 micrograms/ml for in vitro restimulation of the cells. 72 hours later, cell supernatants were harvested and assayed using the Becton Dickinson Mouse Th1/Th2 Cytokine CBA Kit. This kit can be used to measure Interleukin-2 (IL-2), Interleukin-4 (IL-4), Interleukin-5 (IL-5), Interferon-γ (IFN-γ), and Tumor Necrosis Factor-α (TNF-α) protein levels in a single sample.

[7] = tested on: HCMV strain AD169; experiment: HCMV plaque formation assay in MRC-5 cells; settings: 10 micrograms per ml, 7-10 days

Compound	antiviral activity of positive control compounds (HIV-1) [1]	inhibition of HBV replication as compared to the virus control infection [2]	inhibition of the migration of human endothelial cells [3]	effect on the phagocytic activity of murine macrophages (increase) [4]	inhibition of the tube formation of endothelial cells [5] [%]	IFNγ spleen cells; TH1 response (% of control) [6]	IL-2 spleen cells (% of control) [6]	IL-4 spleen cells; TH2 response (% of control) [6]	IL-5 spleen cells; TH2 response (% of control) [6]	TNF-a spleen cells; TH1 response (% of control) [6]	inhibition of HCMV plaque formation as compared to the virus control [7]
Cc1cn([C@H]2C[C@H](N=[N+]=[N-])[C@@H](CO)O2)c(=O)[nH]c1=O [AZT]	expected levels of antiviral activity										
CC(C)(C)NC(=O)[C@@H]1CN(Cc2cccnc2)CCN1C[C@@H](O)C[C@@H](Cc1ccccc1)C(=O)N[C@H]1c2ccccc2C[C@H]1O [indinavir]	expected levels of antiviral activity										
Tyr-Pro-Trp-Gly-NH2 (YPWG-NH2) [Peptide 1]		14.7%	did not inhibit	no inhibitory or activating effects	40	62.0 % of control	83.2 % of control	77.4 % of control	57.1 % of control	82.3 % of control	did not inhibit
His-Pro-Gly-Ser-Arg-Ile-Val-Leu-Ser-Leu-Asp-Val-Pro-Ile-Gly-Leu-Leu-Gln-Ile-Leu-Leu-Glu-Gln-Ala-Arg-Ala-Arg-Ala-Ala-Arg-Glu-Gln-Ala-Thr-Thr-Asn-Ala-Arg-Ile-Leu-Ala-Arg-Val-NH2 (HPGSRIVLSLDVPIGLLQILLEQARARAAREQATTNARILARV-NH2) [Peptide 2]		no effect	15%	31.4%	35	105.6 % of control	66.8 % of control	68.9 % of control	67.0 % of control	125.6 % of control	did not inhibit
